In patent publication US5985893A, “Physically stable solid form of a fluoroquinolone” (Pharmacia & Upjohn Company, priority 1996, dated 1999):
Several values for one entry are separate records, joined by “and”; a condition that tells them apart may be missing. Identical values can stand only once.

Key:
[1] = DSC and thermomicroscopy of solid-state transformations; format: physicochemical
Protocol: A Nikon POH-2 polarized light compound microscope with 10× objective is employed to view specimens mounted dry between a glass microscope slide and a no. 11/2 Cover slip. The samples are heated from ambient through 250° C. in a Mettler FP-80 microfurnace controlled by a Mettler FP-8 microprocessor. The heating rates may vary from 5-20° C./minute. The hot-stage experiments may be videotaped (Sony T120-HG and PM VHS tape) with a Hitachi VK-C350 Color Video Camera and a Panasonic AG-6200 Video Cassette Recorder.
Differential scanning calorimetry (DSC) is used to monitor enthalpy changes as a function of temperature during a linear temperature increase. A DuPont 910 DSC interfaced to a TA Instruments TA2100 computer may be used. The scan rate is 5° C./minute, and the instrument is operated with a 50-80 cc/min dry nitrogen purge. Samples are encapsulated in hermetically sealed aluminum sample pans with a pressure rating of about 2 bar. In some experiments, the lids of the pans are perforated to permit the passage of moisture and other volatile components.
Because calorimetric samples are occasionally affected by residual moisture, samples are sometimes studied with different initial water activities. Samples are weighed into tared DSC pans, and the open pans are permitted to equilibrate for several days in chambers of constant relative humidity at 25±1° C. These chambers are prepared from saturated salt solutions at 53% RH and 75% RH. At the end of the equilibration period, the chambers are opened, and the lids are placed over the samples to prevent re-equilibration with the ambient atmosphere. The samples are removed from the chambers, and the pans are quickly crimped closed.
Detailed description of FIG. 8. […] The heating rate is 5° C./minute. (a.) The sample is encapsulated in a standard DSC pan. (b.) The sample is encapsulated in a hermetically sealed DSC pan. The profiles are offset along the ordinate axis for comparison.
Detailed description of FIG. 10. […] The heating rate was 5° C./minute. (a.) The sample was equilibrated at 53% RH and encapsulated in a standard DSC pan. (b.)The sample was equilibrated at 53% RH and encapsulated in a hermetically sealed DSC pan. (c.) The sample was equilibrated at 75% RH and encapsulated in a hermetically sealed DSC pan. The profiles were offset along the ordinate axis for comparison.

[2] = Dynamic moisture sorption gravimetry (controlled atmosphere microbalance, 25° C); format: physicochemical
Protocol: Dynamic Moisture Sorption Gravimetry
Dynamic moisture uptake is studied on the controlled atmosphere microbalance system at 25° C. About ten mg of sample are equilibrated on the balance for about 2 hours at 2.5% RH. The relative humidity surrounding the sample is increased in increments of 3% RH up to about 92% RH, at which point the RH is decremented in 3% steps to a final RH of about 2.5%. At each relative humidity, the sample is allowed to equilibrate until the mass is stable within 0.0005 mg over a ten minute period. The dry mass is assumed to correspond to the mass of the sample after the initial equilibration period. A controlled atmosphere microbalance is a balance system described by Bergren, M.S. Int. J. Pharm. (1994) Vol. 103, pp. 103-114.
(§1) Detailed description of FIG. 2. […] The ordinate represents the mass change relative to the lowest mass measurement. The abscissa is relative humidity. The circles represent points recorded after sequential increases in the relative humidity and the squares were recorded after decreases in the relative humidity. The horizontal line in the middle of the plot corresponds to the water content of the hypothetical monohydrate of the quinolone.
as §1, with “6.” for “2.”

- DSC first merged endotherm/exotherm (melt/recrystallization) ([1]; FIG. 8, 5° C./minute): 140-150 °C
- DSC second merged endotherm/exotherm (melt/recrystallization) ([1]; FIG. 8, 5° C./minute): 165-180 °C
- DSC melt/recrystallization range, probably direct Form I to Form III ([1]; equilibrated at 53% RH, hermetically sealed pan): 140-150 °C
- DSC exotherm prior to Form III melt ([1]; equilibrated at 75% RH, hermetically sealed pan): about 130 °C
- Temperature of Form I to Form II transformation ([1]; slow heating/ thermomicroscopy melt/recrystallization): 140-151 °C and 143-151 °C
- Moisture content on desorption ([2]; RH decreased to 10%): about 4.3%
- Moisture content on desorption ([2]; RH decreased to 80%): about 4.9%
- Moisture plateau ([2]; sorption, 90-92% RH): 7.5-7.7 % w/w
- Moisture pickup ([2]; sorption, up to 70% RH): 1%
Compound: CN[C@@H](C)[C@@H]1CCN(c2c(F)cc3c(=O)c(C(=O)O)cn(C4CC4)c3c2OC)C1 [Form I, [S-(R*,S*)]-1-cyclopropyl-6-fluoro-1,4-dihydro-8-methoxy-7-[3-[1-(methylamino)ethyl]-1-pyrrolidinyl]-4-oxo-3-quinolinecarboxylic acid]
